This note sets out measurements from patent publication US6395738B1, “Benzofuran derivatives” (Kyowa Hakko Kogyo Co., Ltd., priority 1997, dated 2002).

For orientation: melting point means the temperature of the solid-liquid transition.

In series [1] the target is T1, Recombinant Human PDE IV Enzyme (HSPDE4A) (Homo sapiens, UniProt P27815).
T1 construct: except that 223 amino acids have been deleted from the N-terminal thereof; made in house; host or cells: E. coli
Kind of series: Inhibition test on recombinant human PDE IV enzyme. It is filed as biochemical. The note with it: [3H]cAMP substrate. How it is done: Inhibition Test on Recombinant Human PDE IV Enzyme
Human phosphodiesterase cDNA (HSPDE4A) was isolated from testicles. Its predicted amino acid sequence is identical with the sequence (HSPDE4A5) reported by Bolger, G. et al. (Mol. Cell. Biol., 6558 (1993)) except that 223 amino acids have been deleted from the N-terminal thereof. This recombinant protein was expressed by an E. coli expression plasmid and then purified. The PDE activity was measured in the following 2-step process according to the method of Kincaid, R. and Manganiello, V. [Method. Enzymol., 159, 457 (1988)]. The substrate used was [^3H]cAMP (final concentration: […]), and the reaction was performed in a standard mixture containing N,N-bis(2-hydroxyethyl)-2-aminoethanesulfonic acid (50 mmol/l, pH 7.2), MgCl2 (1 mmol/l) and soybean trypsin inhibitor (0.1 mg/ml). The reaction was initiated by adding the enzyme thereto, and the mixture was incubated at 30° C. for 10 to 30 minutes. The reaction was quenched by hydrochloric acid, and the formed 5′-AMP was completely decomposed with […]. This sample was subjected to chromatography on DEAE-Sephadex A-25, and the eluted [^3H]adenosine was counted with a scintillation counter. The test compound was added after dissolved (concentration: 1.7%) in DMSO.

For series [2], the system named is TNF α. Briefly: Inhibitory activity on production of TNF α in mouse model with LPS-induced sepsis. The format is in vivo, BALB/c male mice. The note with it: Dose (mg) 30; orally administered 90 minutes before LPS i.v.; serum TNF α by ELISA 1 hour after LPS. (In general: In an ELISA, binding on a coated surface is turned into a signal by an enzyme label.)
The mark [3] stands for this setting: concentration of test compound 10^−7 mol/L.
Setting [4] is: concentration of test compound 10^−8 mol/L.

T1 sequence (P27815 224-886 limits assumed): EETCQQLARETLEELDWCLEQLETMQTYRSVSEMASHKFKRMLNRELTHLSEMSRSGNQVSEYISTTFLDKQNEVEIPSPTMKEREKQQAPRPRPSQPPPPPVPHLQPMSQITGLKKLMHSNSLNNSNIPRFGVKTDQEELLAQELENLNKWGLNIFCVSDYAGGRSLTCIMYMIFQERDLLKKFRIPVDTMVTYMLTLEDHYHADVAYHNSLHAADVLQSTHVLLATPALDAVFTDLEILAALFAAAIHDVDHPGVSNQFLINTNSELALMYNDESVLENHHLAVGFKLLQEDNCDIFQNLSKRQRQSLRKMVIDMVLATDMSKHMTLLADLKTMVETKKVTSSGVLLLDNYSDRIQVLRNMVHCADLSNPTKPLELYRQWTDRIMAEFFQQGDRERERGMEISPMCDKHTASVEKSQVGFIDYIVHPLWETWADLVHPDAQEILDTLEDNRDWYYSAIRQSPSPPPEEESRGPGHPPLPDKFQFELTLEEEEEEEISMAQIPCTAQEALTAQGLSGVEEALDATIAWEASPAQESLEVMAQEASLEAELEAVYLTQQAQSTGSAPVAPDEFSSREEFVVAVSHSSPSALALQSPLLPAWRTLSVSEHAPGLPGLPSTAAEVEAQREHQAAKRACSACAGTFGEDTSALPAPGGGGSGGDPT

`COc1ccc(CCc2c(Cl)cncc2Cl)c2cc(C(=O)N3CCN(C)CC3)oc12.O=C(O)/C=C/C(=O)O` gave a melting point of 186 to 187 °C.

On to `COc1ccc(CCc2c(Cl)cncc2Cl)c2cc(C(=O)N3CCN(CCO)CC3)oc12.O=C(O)/C=C/C(=O)O`, for which the melting point fell in the range of 184 to 185 °C.

Regarding `CCN1CCN(C(=O)c2cc3c(C(=O)Nc4c(Cl)cncc4Cl)ccc(OC)c3o2)CC1.O=C(O)/C=C/C(=O)O` [Compound 3, 4-(3,5-Dichloro-4-pyridyl)carbamoyl-2-(4-ethyl-1-piperazinyl)carbonyl-7-methoxybenzofuran monofumarate], the melting point was 202 to 204 °C. Besides, the “Ratio of inhibition (%)” value in series [1] (setting [3]) was determined as 71%. The “Ratio of inhibition (%)” value in series [1] (setting [4]) was 20%. Besides, the “Ratio of inhibition (%) of TNF α production” value in series [2] came out at 50%.

`COC(=O)c1ccc(C(=O)Nc2c(Cl)cncc2Cl)c2cc(N3CCN(C(C)CO)CC3)oc12` (centres unmarked) [Compound 4, 4-(3,5-Dichloro-4-pyridyl)carbamoyl-2-[4-(1-hydroxy-2-propyl)-1-piperazinyl]-7-methoxycarbonylbenzofuran]: the melting point is 148 to 150 °C. In addition, the “Ratio of inhibition (%)” value in series [1] (setting [3]) worked out at 85%. Moreover, the “Ratio of inhibition (%)” value in series [1] (setting [4]) is 28%.

In the case of `CCC(CO)N1CCN(C(=O)c2cc3c(C(=O)Nc4c(Cl)cncc4Cl)ccc(OC)c3o2)CC1` (centres unmarked) [Compound 5, 4-(3,5-Dichloro-4-pyridyl)carbamoyl-2-[4-(1-hydroxy-2-butyl)-1-piperazinyl]carbonyl-7-methoxybenzofuran], the melting point was in the range of 192 to 194 °C. Moreover, in series [1] (setting [3]), the “Ratio of inhibition (%)” value is given as 89%. Moreover, the “Ratio of inhibition (%)” value in series [1] (setting [4]) amounted to 41%. The “Ratio of inhibition (%) of TNF α production” value in series [2] was 53%.

`COc1ccc(C(=O)Nc2c(Cl)cncc2Cl)c2cc(C(=O)N3CCN(CCCO)CC3)oc12` [Compound 6, 4-(3,5-Dichloro-4-pyridyl)carbamoyl-2-(4-hydroxypropyl-1-piperazinyl)carbonyl-7-methoxybenzofuran] yielded a melting point of 180 to 182 °C. In addition, the “Ratio of inhibition (%)” value in series [1] (setting [3]) worked out at 81%. Also, in series [1] (setting [4]), the “Ratio of inhibition (%)” value is recorded as 24%. Besides, the “Ratio of inhibition (%) of TNF α production” value in series [2] is reported as 33%.

With `COc1ccc(C(=O)Nc2c(Cl)cncc2Cl)c2cc(C(=O)N3CCN(CCCCO)CC3)oc12` [Compound 7, 4-(3,5-Dichloro-4-pyridyl)carbamoyl-2-(4-hydroxybutyl-1-piperazinyl)carbonyl-7-methoxybenzofuran], the “Ratio of inhibition (%)” value was found to be 83% in series [1] (setting [3]) and 35% in series [1] (setting [4]).

In turn, `COc1ccc(C(=O)Nc2c(Cl)cncc2Cl)c2cc(C(=O)N3CCN(CCOCCO)CC3)oc12` [Compound 9, 4-(3,5-Dichloro-4-pyridyl)carbamoyl-2-{4-[2-(2-hydroxyethoxy)ethyl]-1-piperazinyl}carbonyl-7-methoxybenzofuran] came in with a melting point of 132 to 133 °C. Besides, the “Ratio of inhibition (%)” value in series [1] (setting [3]) came to 78%. Moreover, the “Ratio of inhibition (%)” value in series [1] (setting [4]) is recorded as 29%.

In turn, `COc1ccc(C(=O)Nc2c(Cl)cncc2Cl)c2cc(C(=O)N3CC(C)N(C)C(C)C3)oc12` (centres unmarked) [Compound 10, 4-(3,5-Dichloro-4-pyridyl)carbamoyl-7-methoxy-2-(3,4,5-trimethyl-1-piperazinyl)carbonylbenzofuran] came in with a melting point of 234 to 236 °C. The “Ratio of inhibition (%)” value in series [1] (setting [3]) is listed as 75%. The “Ratio of inhibition (%)” value in series [1] (setting [4]) was determined as 9%. Besides, in series [2], the “Ratio of inhibition (%) of TNF α production” value is on record as 46%.

Consider `COc1ccc(C(=O)Nc2c(Cl)cncc2Cl)c2cc(C(=O)N3CC(C)N(CCO)C(C)C3)oc12` (centres unmarked) [Compound 11, 4-(3,5-Dichloro-4-pyridyl)carbamoyl-2-(3,5-dimethyl-4-hydroxyethyl-7-methoxy-1-piperazinyl)carbonylbenzofuran], for which the “Ratio of inhibition (%)” value in series [1] (setting [3]) is given as 88%; in series [1] (setting [4]) it was 48%.

For `COc1ccc(C(=O)Nc2c(Cl)cncc2Cl)c2cc(C(=O)N3CCNCC3)oc12` [Compound 12, 4-(3,5-Dichloro-4-pyridyl)carbamoyl-7-methoxy-2-(1-piperazinyl)carbonylbenzofuran], the “Ratio of inhibition (%) of TNF α production” value in series [2] amounted to 27%.

In the case of `CCN1CCN(c2cc3c(C(=O)Cc4c(Cl)cncc4Cl)ccc(C(=O)OC)c3o2)CC1.O=C(O)/C=C/C(=O)O` [Compound 15, 4-[2-(3,5-Dichloro-4-pyridyl)-1-oxoethyl]-2-(4-ethyl-1-piperazinyl)-7-methoxycarbonylbenzofuran Monofumarate], the melting point was 196 to 198 °C. Besides, in series [2], the “Ratio of inhibition (%) of TNF α production” value amounted to 61%.

`COc1ccc(C(=O)Cc2c(Cl)cncc2Cl)c2cc(C(=O)N3CCN(C(C)C)CC3)oc12.O=C(O)/C=C/C(=O)O` [Compound 16, 4-[2-(3,5-Dichloro-4-pyridyl)-1-oxoethyl]-2-(4-isopropyl-1-piperazinyl)carbonyl-7-methoxybenzofuran Monofumarate]: the melting point was in the range of 195 to 196 °C. Besides, the “Ratio of inhibition (%) of TNF α production” value in series [2] stood at 67%.

Turning to `CCOCCN1CCN(C(=O)c2cc3c(C(=O)Cc4c(Cl)cncc4Cl)ccc(OC)c3o2)CC1.O=C(O)/C=C/C(=O)O` [Compound 17, 4-[2-(3,5-Dichloro-4-pyridyl)-1-oxoethyl]-2-(4-ethoxyethyl-1-piperazinyl)carbonyl-7-methoxybenzofuran Monofumarate], the melting point was 184 to 185 °C. Besides, in series [2], the “Ratio of inhibition (%) of TNF α production” value is reported as 62%.

`COc1ccc(C(=O)Cc2c(Cl)cncc2Cl)c2cc(C(=O)N3CCN(C(C)CO)CC3)oc12` (centres unmarked) [Compound 18, 4-[2-(3,5-Dichloro-4-pyridyl)-1-oxoethyl]-2-[4-(1-hydroxy-2-propyl)-1-piperazinyl]carbonyl-7-methoxybenzofuran]: the melting point lay within 187 to 189 °C. Also, the “Ratio of inhibition (%) of TNF α production” value in series [2] was 66%.

Take `CCC(CO)N1CCN(C(=O)c2cc3c(C(=O)Cc4c(Cl)cncc4Cl)ccc(OC)c3o2)CC1` (centres unmarked) [Compound 19, 4-[2-(3,5-Dichloro-4-pyridyl)-1-oxoethyl]-2-[4-(1-hydroxy-2-butyl)-1-piperazinyl]carbonyl-7-methoxybenzofuran]: the melting point fell in the range of 150 to 152 °C. For the same molecule, the “Ratio of inhibition (%) of TNF α production” value in series [2] is 68%.

Molecule `COc1ccc(C(=O)Cc2c(Cl)cncc2Cl)c2cc(C(=O)N3CCN(CCCO)CC3)oc12` [Compound 20, 4-[2-(3,5-Dichloro-4-pyridyl)-1-oxoethyl]-2-[4-(3-hydroxypropyl)-1-piperazinyl]carbonyl-7-methoxybenzofuran] returned a melting point of 162 to 163 °C. Moreover, the “Ratio of inhibition (%) of TNF α production” value in series [2] came to 40%.

For `COc1ccc(C(=O)Cc2c(Cl)cncc2Cl)c2cc(C(=O)N3CCN(CCCCO)CC3)oc12` [Compound 21, 4-[2-(3,5-Dichloro-4-pyridyl)-1-oxoethyl]-2-[4-(4-hydroxybutyl)-1-piperazinyl]carbonyl-7-methoxybenzofuran], the melting point lay in the range of 120 to 121 °C. Further, the “Ratio of inhibition (%) of TNF α production” value in series [2] was 28%.

Turning to `COc1ccc(C(=O)Cc2c(Cl)cncc2Cl)c2cc(C(=O)N3CCN(C(CO)CO)CC3)oc12` [Compound 22, 4-[2-(3,5-Dichloro-4-pyridyl)-1-oxoethyl]-2-[4-(1,3-dihydroxy-2-propyl)-1-piperazinyl]carbonyl-7-methoxybenzofuran], the melting point was in the range of 213 to 215 °C. In series [2], the “Ratio of inhibition (%) of TNF α production” value stood at 52%.

Molecule `COc1ccc(C(=O)Cc2c(Cl)cncc2Cl)c2cc(C(=O)N3CCN(CCOCCO)CC3)oc12` [Compound 23, 4-[2-(3,5-Dichloro-4-pyridyl)-1-oxoethyl]-2-{4-[2-(2-hydroxyethoxy)ethyl]-1-piperazinyl}carbonyl-7-methoxybenzofuran] had a melting point of 132 to 133 °C.

In the case of `COc1ccc(C(=O)Cc2c(Cl)cncc2Cl)c2cc(C(=O)N3CCNCC3)oc12.Cl` [Compound 24, 4-[2-(3,5-Dichloro-4-pyridyl)-1-oxoethyl]-2-(1-piperazinyl)carbonyl-7-methoxybenzofuran Monohydrochloride], the “Ratio of inhibition (%) of TNF α production” value in series [2] came out at 47%.

In turn, `COc1ccc(C(=O)Cc2c(Cl)cncc2Cl)c2cc(C(=O)N3CC(C)N(C)C(C)C3)oc12` (centres unmarked) [Compound 25, 4-[2-(3,5-Dichloro-4-pyridyl)-1-oxoethyl]-7-methoxy-2-(3,4,5-trimethyl-1-piperazinyl)carbonylbenzofuran] displayed a melting point of 173 to 174 °C. Besides, the “Ratio of inhibition (%) of TNF α production” value in series [2] amounted to 53%.

For the molecule `COc1ccc(C(=O)Cc2c(Cl)cncc2Cl)c2cc(C(=O)N3CC(C)N(CCO)C(C)C3)oc12` (centres unmarked) [Compound 26, 4-[2-(3,5-Dichloro-4-pyridyl)-1-oxoethyl]-2-(3,5-dimethyl-4-hydroxyethyl-1-piperazinyl)carbonyl-7-methoxybenzofuran], the melting point fell in the range of 187 to 188 °C.
